According to US6410568B1, “Porphyrins and their use as photosensitizer” (Astrid Schastak, priority 1998, dated 2002):

Columns and labels:
Assay in all cases: Photodynamic effect in vitro, MTT test after irradiation
[1] = test system: highly-differentiated gallbladder carcinoma cell line (Wittier); format: cell-based, human; conditions: THPTPS 0.2, 0.4, 0.8 mg/ml for 12 hours, Ti:Sa laser 771 nm, 15 J/cm^2
Experimental: (§1) To examine the photodynamic effect in vitro, the above-mentioned cell lines were cultivated in a cell count of 2×10^5 C/ml in DMEM+10% FKS and incubated with the photosensitizer THPTPS in a concentration of 0.2, 0.4, 0.8 mg/ml (Wittier) or 0.4, 0.8, 1.6 mg/ml for 12 hours. Subsequently, they were irradiated with the light of a Ti:Sa leaser with a wavelength of 771 nm and a dose of 15 J/cm^2. […] Approximately 88% of the choroid melanoma cells were able to be killed by the irradiation.

choroid melanoma cells = format: cell-based; conditions: THPTPS 0.4, 0.8, 1.6 mg/ml for 12 hours, Ti:Sa laser 771 nm, 15 J/cm^2
Experimental: as §1

[2] = test system: bile duct adenocarcinoma cell line (Charies), undifferentiated to a high degree; format: cell-based; conditions: THPTPS 0.4, 0.8, 1.6 mg/ml for 12 hours, Ti:Sa laser 771 nm, 15 J/cm^2
Experimental: as §1

Substance: 5,10,15,20-tetrakis-(1-alkyl-pyridyl)-21H, 23H-7,8,17,18-tetrahydroporphyrin-tetra-p-toluene sulphonate [THPTPS]
- cells dead (MTT test) [1]: approx. 88%
- cells killed by the irradiation (MTT test) (choroid melanoma cells): approx. 88%
- cells dead (MTT test) [2]: approx. 84%
